Experimental data taken from patent EP1902732A1, “PROPHYLACTIC/THERAPEUTIC AGENT FOR HER2-EXPRESSING CANCER” (Takeda Pharmaceutical Company Limited, priority 2005, dated 2006).

Key:
[1] = test system: BT-474 breast cancer cell; test: Sulphorhodamine-B (SRB) cell proliferation assay; type: cell-based; settings: Homo sapiens, BT-474, 120 h; HER2-expressing cell; cultured for five days; SRB staining
Procedure: (§1) BT-474 breast cancer cell (purchased from ATCC) was used as a human HER2-expressing cell and MDA-MB-231 breast cancer cell (purchased from ATCC) was used as a HER2-nonexpressing cell. These cells were seeded into a 96-multiwell plate (BT-474: 3.0 x 10^4 cells/well, MDA-MB-231: 1.5 x 10^4 cells/well), and cultured overnight in a carbon dioxide gas incubator (5% CO2, 37°C). A 4-fold dilution series of a mitochondrial respiratory chain complex-inhibiting compound (complex I: rotenone) was added starting from a final concentration of 10 µmol/L in 10 steps, and further cultured for five days. At the end of culture, the broth containing rotenone was removed, the cells were washed with a phosphoric acid buffer, immobilized with 5% trichloroacetic acid solution, and added with 0.4% (W/V) sulphorhodamine-B (SRB) dye solution (dissolved in 1% acetic acid) for staining the cellular protein. Subsequently, the SRB dye solution was removed from the plate and the plate was washed with a 1% acetic acid solution. Then, 100 µL 10 mM Tris buffer solution was added for extraction and dye dissolution, and absorbance at an absorption wavelength of 550 nm was measured to determine the cellular quantity as a protein amount (Journal of National Cancer Institute. Vol. 82, pp. 1107-1112, 1990). […]

[2] = test system: MDA-MB-231 breast cancer cell; test: Sulphorhodamine-B (SRB) cell proliferation assay; type: cell-based; settings: Homo sapiens, MDA-MB-231, 120 h; HER2-nonexpressing cell; cultured for five days; SRB staining
Procedure: as §1

[3] = test system: HER2; test: Western blotting of phosphorylated HER2 in BT-474 cells; type: cell-based, human
Procedure: (§2) Human HER2-expressing human breast cancer cell line BT-474 (purchased from American Tissue Culture Collection (ATCC)) was seeded into a 24-multiwell plate (BT-474: 1.2 x 10^5 cells/well), and cultured overnight in a carbon dioxide gas incubator (5% CO2, 37°C). A 4-fold dilution series of a mitochondrial respiratory chain complex inhibiting compound (complex I: rotenone, complex III: antimycin, complex V: oligomycin: Wako Pure Chemical Industries) was added starting from a final concentration of 1 µmol/L in 5 steps while continuing culture. After 2 hours, the broth was removed, and the cells were lysed with an SDS sample buffer (200 µL). Western blotting analysis was performed as follows. Specifically, this cell lysate (8 µL) was separated by an SDS-PAGE method (gel concentration: 7.5-15%) (Analytical Biochemistry, No. 166, pp. 368-379, 1987), and transferred to a nitrocellulose membrane (BioRad). Then, an antibody specific to phosphorylated HER2 (Cell signaling technology, Code# 2244), an anti-phosphorylated Akt antibody specific to downstream antiapoptotic signal transducing molecule Akt (Cell signaling technology, Code# 9271) and an anti-phosphorylated MAPK antibody specific to downstream proliferation signal transducing molecule MAPK (Cell signaling technology, Code# 9101) were used to detect the antibody with an ECL system (Amersham) to quantify the amount of phosphorylated protein by an image analysis.
(§3) Human HER2-expressing human cancer cell line BT-474 (purchased from ATCC) was seeded into a 24-multiwell plate (1.2 x 10^5 cells/well) and cultured overnight in a carbon dioxide gas incubator (20% O2, 5% CO2, 37°C). A 3-fold dilution series of metformin that activates AMPK (The Journal of Biological Chemistry, Vol. 279, No. 42, pp. 43940-43951, 2004) was added starting from a final concentration of 15 mmol/L in 5 steps while continuing culture. Two hours later, the broth was removed and the cells were lysed with an SDS sample buffer (200 µL). This cell lysate (8 µL) was separated by an SDS-PAGE method (gel concentration: 7.5-15%) (Analytical Biochemistry, No. 166, pp. 368-379, 1987). Then, western blotting analysis was performed in the same manner as in Example 1 to quantify phosphorylated HER2, phosphorylated Akt and phosphorylated MAPK.
(§4) Human HER2-expressing human breast cancer cell line BT-474 (purchased from American Tissue Culture Collection (ATCC)) was seeded into a 24-multiwell plate (BT-474: 1.2 x 10^5 cells/well), and cultured overnight in a carbon dioxide gas incubator (5% CO2, 37°C). Mitochondrial respiratory chain complex 1-inhibiting compound rotenone (Wako Pure Chemical Industries) was added in 5 steps at final concentrations of 1, 0.333, 0.111, 0.033 and 0.011 µmol/L while continuing culture. Two hours later, the broth was removed and the cells were lysed with an SDS sample buffer (200 µL). Then, this cell lysate was used to perform western blotting analysis. Specifically, this cell lysate (8 µL) was separated by an SDS-PAGE method (gel concentration: 7.5-15%) (Analytical Biochemistry, No. 166, pp. 368-379, 1987) and transferred to a nitrocellulose membrane (BioRad). Then, an antibody specific to phosphorylated HER2 (Cell signaling technology, Code# 2244), an AMPK antibody specific to AMPK (Cell signaling technology, Code# 2535) and an anti-phosphorylated AMPK antibody specific to phosphorylated AMPK (Cell signaling technology, Code# 2532) were used to detect the antibody by chemiluminescent detection with an ECL system (Amersham) to quantify an amount of phosphorylated protein with LAS-1000 plus image analysis device (FUJIFILM).
Human HER2-expressing human breast cancer cell line BT-474 (purchased from American Tissue Culture Collection (ATCC)) was seeded into a 24-multiwell plate (BT-474: 1.2 x 10^5 cells/well) and cultured overnight in a carbon dioxide gas incubator (5% CO2, 37°C). […]

[4] = test system: Akt; test: Western blotting of phosphorylated Akt in BT-474 cells; type: cell-based, human; settings: Example 2, 4-fold dilution series from 1 µmol/L in 5 steps, 2 hours
Procedure: as §2, §3

[5] = test system: MAPK; test: Western blotting of phosphorylated MAPK in BT-474 cells; type: cell-based, human; settings: Example 2, 4-fold dilution series from 1 µmol/L in 5 steps, 2 hours
Procedure: as §2, §3

[6] = test system: phosphorylated AMPK; test: Western blotting of phosphorylated AMPK in BT-474 cells; type: cell-based, human; settings: Example 6, 1, 0.333, 0.111, 0.033 and 0.011 µmol/L, two hours
Procedure: as §4

[7] = test system: AMPK; test: Western blotting of AMPK protein amount in BT-474 cells; type: cell-based, human; settings: Example 6, 1, 0.333, 0.111, 0.033 and 0.011 µmol/L, two hours
Procedure: as §4

[8] = test system: EGFR; test: Western blotting of phosphorylated EGFR in A431 cells; type: cell-based, human; settings: Example 9, 4-fold dilution series from 1 µmol/L in 5 steps, 2 hours
Procedure: Human EGFR-expressing human epidermal cancer cell line A431 (purchased from American Tissue Culture Collection (ATCC)) was seeded into a 24-multiwell plate (A431:6x10^4 cells/well), and cultured overnight in a carbon dioxide gas incubator (5% CO2, 37°C). A 4-fold dilution series of a mitochondria complex-inhibiting compound (complex I: rotenone, Wako Pure Chemical Industries) was added in 5 steps starting from a final concentration of 1 µmol/L while continuing culture. The broth was removed 2 hours later, and cells were lysed with an SDS sample buffer (200 µL). Western blotting analysis was conducted as follows. Specifically, this cell lysate (8 µL) was separated by an SDS-PAGE method (gel concentration: 7.5-15%) (Analytical Biochemistry, No. 166, pp. 368-379, 1987) and transferred onto a nitrocellulose membrane (BioRad). Subsequently, an antibody specific to phosphorylated EGFR (Cell signaling technology, Code# 2232) was used to detect an antibody with an ECL system (Amersham) to quantify the amount of phosphorylated protein by an image analysis.

C=C(C)[C@H]1Cc2c(ccc3c2O[C@@H]2COc4cc(OC)c(OC)cc4[C@@H]2C3=O)O1 [rotenone]
IC50 [1]: 0.004 µM
IC50 [2]: 0.5 µM
HER2 phosphorylation ([3]; Example 2, 4-fold dilution series from 1 µmol/L in 5 steps, 2 hours): suppression of HER2 phosphorylation was confirmed
HER2 phosphorylation ([3]; Example 6, 1, 0.333, 0.111, 0.033 and 0.011 µmol/L, two hours): decreased dose-dependently
Akt phosphorylation [4]: suppressions of Akt and MAPK phosphorylations were also confirmed
MAPK phosphorylation [5]: suppressions of Akt and MAPK phosphorylations were also confirmed
amount of AMPK phosphorylation [6]: increased dose-dependently
amount of AMPK protein itself [7]: A quantitative change was not observed
EGFR phosphorylation [8]: No suppression of EGFR phosphorylation was observed
